Test results as given in PubChem BioAssay AID2060330 (Molecular Pharmacology Branch, DTP, NCI, 2025).

System: LG0703-F948-PDC spheroids with HUVEC/MSC, viability
Test: Anticancer human tumor LG0703-F948-PDC patient-derived lung adenocarcinoma cell line growth inhibition [IpAb]
Conditions: for IC50: curve of first compound; for viability, T/C: stronger effect = lower value
Procedure, shortened: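 Spheroids of 60% malignant cells, 25% HUVEC and 15% MSC were exposed to targeted agents combined with ipatasertib or abemaciclib. Doses started at or near clinical Cmax (10 microM when unknown) and fell in half-log steps.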
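Note: spheroids exposed to compounds for seven days before readout.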
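Throughout, for viability, T/C: T/C percent relative to DMSO vehicle wells set as 100% viability.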

Question: Which IC50 (second compound 0.1 µM) does the source give for `CC(C)(C)c1cnc(CSc2cnc(NC(=O)C3CCNCC3)s2)o1` + CC(C)NCC(C(=O)N1CCN(c2ncnc3c2C(C)CC3O)CC1)c1ccc(Cl)cc1 here?
Answer: The IC50 was 74.3 nM.

Question: What about the IC50 (second compound 0.316 µM) of the same molecule?
Answer: The IC50 was 36.9 nM.

Question: What about the IC50 (second compound 1 µM) of the same molecule?
Answer: Its IC50 is 15.5 nM.

Question: What about the IC50 (second compound 3.16 µM) of the same molecule?
Answer: The IC50 was < 9.49 nM.

Question: What about the IC50 (second compound 10 µM) of the same molecule?
Answer: The IC50 was < 9.49 nM.

Question: What about the viability, T/C (second compound 0.1 µM, first compound 0.00949 µM) of the same molecule?
Answer: Its viability, T/C is 78.5%.

Question: What about the viability, T/C (second compound 0.1 µM, first compound 0.03 µM) of the same molecule?
Answer: The viability, T/C was 74%.

Question: And the viability, T/C (second compound 0.1 µM, first compound 0.0949 µM)?
Answer: Its viability, T/C is 43.3%.

Question: What about the viability, T/C (second compound 0.1 µM, first compound 0.3 µM) of the same molecule?
Answer: Its viability, T/C is 0.48%.

Question: And the viability, T/C (second compound 0.1 µM, first compound 0.949 µM)?
Answer: The viability, T/C was 0.41%.

Question: And the viability, T/C (second compound 0.1 µM, first compound 3 µM)?
Answer: The viability, T/C was 0.23%.

Question: What about the viability, T/C (second compound 0.316 µM, first compound 0.00949 µM) of the same molecule?
Answer: The viability, T/C was 61.5%.

Question: What about the viability, T/C (second compound 0.316 µM, first compound 0.03 µM) of the same molecule?
Answer: Its viability, T/C is 51.2%.

Question: What about the viability, T/C (second compound 0.316 µM, first compound 0.0949 µM) of the same molecule?
Answer: The viability, T/C was 30.8%.

Question: And the viability, T/C (second compound 0.316 µM, first compound 0.3 µM)?
Answer: The viability, T/C was 0.34%.

Question: And the viability, T/C (second compound 0.316 µM, first compound 0.949 µM)?
Answer: Its viability, T/C is 0.3%.

Question: What about the viability, T/C (second compound 0.316 µM, first compound 3 µM) of the same molecule?
Answer: The viability, T/C was 0.29%.

Question: And the viability, T/C (second compound 1 µM, first compound 0.00949 µM)?
Answer: The viability, T/C was 52%.

Question: What about the viability, T/C (second compound 1 µM, first compound 0.03 µM) of the same molecule?
Answer: Its viability, T/C is 47.5%.

Question: And the viability, T/C (second compound 1 µM, first compound 0.0949 µM)?
Answer: The viability, T/C was 24.2%.

Question: What about the viability, T/C (second compound 1 µM, first compound 0.3 µM) of the same molecule?
Answer: Its viability, T/C is 0.43%.

Question: And the viability, T/C (second compound 1 µM, first compound 0.949 µM)?
Answer: Its viability, T/C is 0.34%.

Question: What about the viability, T/C (second compound 1 µM, first compound 3 µM) of the same molecule?
Answer: The viability, T/C was 0.31%.

Question: And the viability, T/C (second compound 3.16 µM, first compound 0.00949 µM)?
Answer: Its viability, T/C is 44.7%.

Question: And the viability, T/C (second compound 3.16 µM, first compound 0.03 µM)?
Answer: The viability, T/C was 37.4%.

Question: What about the viability, T/C (second compound 3.16 µM, first compound 0.0949 µM) of the same molecule?
Answer: Its viability, T/C is 15.4%.

Question: What about the viability, T/C (second compound 3.16 µM, first compound 0.3 µM) of the same molecule?
Answer: Its viability, T/C is 0.55%.

Question: And the viability, T/C (second compound 3.16 µM, first compound 0.949 µM)?
Answer: Its viability, T/C is 1.3%.

Question: What about the viability, T/C (second compound 3.16 µM, first compound 3 µM) of the same molecule?
Answer: The viability, T/C was 0.69%.

Question: What about the viability, T/C (second compound 10 µM, first compound 0.00949 µM) of the same molecule?
Answer: Its viability, T/C is 35.1%.

Question: And the viability, T/C (second compound 10 µM, first compound 0.03 µM)?
Answer: The viability, T/C was 31.5%.

Question: And the viability, T/C (second compound 10 µM, first compound 0.0949 µM)?
Answer: The viability, T/C was 28.2%.

Question: And the viability, T/C (second compound 10 µM, first compound 0.3 µM)?
Answer: Its viability, T/C is 1.21%.

Question: What about the viability, T/C (second compound 10 µM, first compound 0.949 µM) of the same molecule?
Answer: The viability, T/C was 0.81%.

Question: What about the viability, T/C (second compound 10 µM, first compound 3 µM) of the same molecule?
Answer: Its viability, T/C is 0.34%.

Question: With `Cn1nccc1Nc1nccc(-c2ccn(C(CO)c3ccc(Cl)c(F)c3)c(=O)c2)n1` (stereo not given) + CC(C)NCC(C(=O)N1CCN(c2ncnc3c2C(C)CC3O)CC1)c1ccc(Cl)cc1 as the molecule, how does the IC50 (second compound 0.1 µM) read?
Answer: Its IC50 is 502 nM.

Question: And the IC50 (second compound 0.316 µM)?
Answer: The IC50 was 97 nM.

Question: What about the IC50 (second compound 1 µM) of the same molecule?
Answer: The IC50 was < 31.6 nM.

Question: And the IC50 (second compound 3.16 µM)?
Answer: Its IC50 is < 31.6 nM.

Question: And the IC50 (second compound 10 µM)?
Answer: The IC50 was < 31.6 nM.

Question: What about the viability, T/C (second compound 0.1 µM, first compound 0.0316 µM) of the same molecule?
Answer: Its viability, T/C is 67.3%.

Question: What about the viability, T/C (second compound 0.1 µM, first compound 0.1 µM) of the same molecule?
Answer: The viability, T/C was 66.3%.

Question: And the viability, T/C (second compound 0.1 µM, first compound 0.316 µM)?
Answer: The viability, T/C was 49.8%.

Question: What about the viability, T/C (second compound 0.1 µM, first compound 1 µM) of the same molecule?
Answer: The viability, T/C was 39.7%.

Question: And the viability, T/C (second compound 0.1 µM, first compound 3.16 µM)?
Answer: Its viability, T/C is 50.3%.

Question: What about the viability, T/C (second compound 0.1 µM, first compound 10 µM) of the same molecule?
Answer: The viability, T/C was 37.6%.

Question: And the viability, T/C (second compound 0.316 µM, first compound 0.0316 µM)?
Answer: The viability, T/C was 64.7%.

Question: What about the viability, T/C (second compound 0.316 µM, first compound 0.1 µM) of the same molecule?
Answer: The viability, T/C was 49.4%.

Question: What about the viability, T/C (second compound 0.316 µM, first compound 0.316 µM) of the same molecule?
Answer: Its viability, T/C is 36.5%.

Question: What about the viability, T/C (second compound 0.316 µM, first compound 1 µM) of the same molecule?
Answer: The viability, T/C was 28%.

Question: What about the viability, T/C (second compound 0.316 µM, first compound 3.16 µM) of the same molecule?
Answer: Its viability, T/C is 32.5%.

Question: What about the viability, T/C (second compound 0.316 µM, first compound 10 µM) of the same molecule?
Answer: The viability, T/C was 27.1%.

Question: And the viability, T/C (second compound 1 µM, first compound 0.0316 µM)?
Answer: Its viability, T/C is 45%.

Question: What about the viability, T/C (second compound 1 µM, first compound 0.1 µM) of the same molecule?
Answer: Its viability, T/C is 39.8%.

Question: What about the viability, T/C (second compound 1 µM, first compound 0.316 µM) of the same molecule?
Answer: The viability, T/C was 21.7%.

Question: What about the viability, T/C (second compound 1 µM, first compound 1 µM) of the same molecule?
Answer: The viability, T/C was 15.3%.

Question: What about the viability, T/C (second compound 1 µM, first compound 3.16 µM) of the same molecule?
Answer: Its viability, T/C is 12.3%.

Question: And the viability, T/C (second compound 1 µM, first compound 10 µM)?
Answer: Its viability, T/C is 16%.

Question: What about the viability, T/C (second compound 3.16 µM, first compound 0.0316 µM) of the same molecule?
Answer: The viability, T/C was 38.2%.

Question: And the viability, T/C (second compound 3.16 µM, first compound 0.1 µM)?
Answer: Its viability, T/C is 33%.

Question: And the viability, T/C (second compound 3.16 µM, first compound 0.316 µM)?
Answer: Its viability, T/C is 16.4%.

Question: What about the viability, T/C (second compound 3.16 µM, first compound 1 µM) of the same molecule?
Answer: Its viability, T/C is 9.61%.

Question: And the viability, T/C (second compound 3.16 µM, first compound 3.16 µM)?
Answer: Its viability, T/C is 9.49%.

Question: And the viability, T/C (second compound 3.16 µM, first compound 10 µM)?
Answer: Its viability, T/C is 5.88%.

Question: And the viability, T/C (second compound 10 µM, first compound 0.0316 µM)?
Answer: Its viability, T/C is 32.5%.

Question: And the viability, T/C (second compound 10 µM, first compound 0.1 µM)?
Answer: The viability, T/C was 22.6%.

Question: And the viability, T/C (second compound 10 µM, first compound 0.316 µM)?
Answer: The viability, T/C was 29.5%.

Question: And the viability, T/C (second compound 10 µM, first compound 1 µM)?
Answer: Its viability, T/C is 6.93%.

Question: And the viability, T/C (second compound 10 µM, first compound 3.16 µM)?
Answer: The viability, T/C was 4.16%.

Question: What about the viability, T/C (second compound 10 µM, first compound 10 µM) of the same molecule?
Answer: The viability, T/C was 3.23%.
